Source: US10561704B2, “Compositions and methods for treating neuropsychiatric disorders using an endothelin-B receptor agonist” (MIDWESTERN UNIVERSITY, priority 2013, dated 2020)
*1 amine or outer side, *2 acyl side, *3 side chain or, on linkers, in order; H or OH if unused. Where no end group is shown, it is not given here. Suc = O=C(CCC(=O)[*:2])[*:1]

What was measured:
[1] = test system: middle cerebral artery occluded rats; experiment: Angiogenesis and neurogenesis markers (ETB, NeuN, BrdU, VEGF, NGF) following cerebral ischemia; format: in vivo
Method: FIG. 16: Effect of ETB receptor agonist, IRL-1620 (three doses of 5 μg/kg, i.v., at 2, 4 and 6 h post ischemia), and antagonist, BQ788 (1 mg/kg, i.v.), on neuronal nuclei (NeuN) post middle cerebral artery occlusion. (A) Representative image of the cortex of an IRL-1620-treated animal 1 week following MCAO, stained for the ETB receptor (green) and NeuN (red). Scale bar=100 μm. (B) Representative image of the striatum of an IRL-1620-treated animal 1 week following MCAO, stained for the ETB receptor (green) and NeuN (red). Scale bar=10 μm. (C) Number of neuronal nuclei per 100 μm^2 in the cortex, striatum, and subventricular zone of middle cerebral artery occluded rats at 24 h after infarct. *P<0.05 vs. sham. ^#P<0.01 vs. MCAO+vehicle. ^@P<0.0001 vs. MCAO+IRL-1620. (D) Number of neuronal nuclei per 100 μm^2 in the cortex, striatum, and subventricular zone of middle cerebral artery occluded rats at 1 week after infarct. Values are expressed as mean±SEM (n=5/group). *P<0.0001 vs. sham. ^#P<0.0001 vs. MCAO+vehicle. ^@P<0.0001 vs. MCAO+IRL-1620.
FIG. 17: Effect of ETB receptor agonist, IRL-1620 (3 doses of 5 μg/kg, i.v., at 2, 4 and 6 hours post ischemia), and antagonist, BQ788 (1 mg/kg, i.v.), on proliferating cells post middle cerebral artery occlusion. Representative image of the cortex of an IRL-1620-treated animal 1 week following MCAO depicting a cerebral blood vessel, stained for the ETB receptor (green) and BrdU (red). Scale bar=100 μm. […] Values are expressed as mean±SEM (n=5/group). *P<0.01 vs. sham. #P<0.0001 vs. MCAO+vehicle. @P<0.0001 vs. MCAO+IRL-1620.
FIG. 19: Effect of ETB receptor agonist, IRL-1620 (3 doses of 5 μg/kg, i.v., at 2, 4 and 6 hours post ischemia), and antagonist, BQ788 (1 mg/kg, i.v.), on vascular endothelial growth factor (VEGF) post middle cerebral artery occlusion. […] Values are expressed as mean±SEM (n=5/group). *P<0.01 vs. sham. #P<0.01 vs. MCAO+vehicle. @P<0.05 vs. MCAO+IRL-1620.
FIG. 21: Effect of ETB receptor agonist, IRL-1620 (3 doses of 5 μg/kg, i.v., at 2, 4 and 6 hours post ischemia), and antagonist, BQ788 (1 mg/kg, i.v.), on nerve growth factor (NGF) post middle cerebral artery occlusion. A. Representative image of the cortex of an IRL-1620-treated animal 1 week following MCAO, stained for the ETB receptor (green) and NGF (red). Scale bar=10 μm. B. Number of NGF+cells per 100 μm^2 in the cortex, striatum, and subventricular zone of middle cerebral artery occluded rats at 1 week after infarct. Values are expressed as mean±SEM (n=5/group). #P<0.0001 vs. MCAO+vehicle. @P<0.0001 vs. MCAO+IRL-1620.
Effect of IRL-1620 on angiogenesis and neurogenesis following cerebral ischemia in rats: Angiogenesis and neurogenesis are the driving forces for the neurovascular remodeling that is essential post-stroke to restore normal brain function (Hawkins and Davis, 2005). VEGF is an endogenous protein known for its ability to promote angiogenesis and enhance vascular permeability. Under hypoxic conditions such as cerebral ischemia, VEGF expression is induced in neurons, astrocytes and endothelial cells via hypoxia-inducible factor-1 (HIF-1) (Breier and Risau, 1996). Once expressed, VEGF initiates both direct and indirect neuroprotective actions, inhibiting apoptosis, stimulating neurogenesis and angiogenesis, increasing glucose uptake and activating antioxidants (Gora-Kupilas and Josko, 2005). It has been shown that intracerebroventricular (i.c.v.) administration of an ETB receptor agonist in normal rats stimulates production of VEGF and activates VEGF receptors in the brain, while, in cultured astrocytes, this agonist increases VEGF-A mRNA as well as BrdU incorporation (Koyama et al., 2012; Koyama et al., 2011). ETB receptor agonist, IRL-1620, has been shown in our previous studies, to provide significant neuroprotection at both 24 hours and 1 week following permanent cerebral ischemia. […]

postnatal rat brain = experiment: Immunoblotting of VEGF, NGF and ETB receptors in the postnatal rat brain after IRL-1620; format: in vivo, Sprague-Dawley rats
From the text: After 21 days of gestation, 70 male and 65 female pups were born to 10 pregnant female rats. 30 male pups were randomly selected for Study I, and divided into 4 groups as follows: Group 1=male pups euthanized on postnatal day 1 (N=10); Group 2=male pups euthanized on postnatal day 7 (N=10); Group 3=male pups euthanized on postnatal day 14 (N=5); Group 4=male pups euthanized on postnatal day 28 (N=5). An additional 20 male pups were randomly selected for Study II, and divided into 2 groups: Control (N=10) and IRL-1620-treated (N=10). Pups in Study II received 3 doses of either isotonic saline (1 ml/kg) or ETB receptor agonist IRL-1620 (5 μg/kg; American Peptide Co, Inc., Sunnyvale, Calif.) on postnatal day 21. The doses were given intravenously at 2 hour intervals. All pups were weighed and evaluated for developmental and behavioral characteristics at postnatal day 1, 7, 14 and 28. Developmental and behavioral characteristics included active vs. sluggish behavior, healthy vs. shedding fur, licking, grooming, aggressive behavior, defecation, urination and wet dog shakes.
Protein levels of VEGF, NGF and ETB receptors in the postnatal rat brain of animals in Study II were estimated using immunoblotting technique. Animals were decapitated and the brains were removed on postnatal day 28, which is 7 days post administration of either saline or ETB receptor agonist, IRL-1620. The tissue was homogenized in 10× (w/v) RIPA lysis buffer, and protein concentration was determined according to the Lowry method, using bovine serum albumin as standard (Lowry et al., 1951). Protein (60 μg) was denatured in Laemmli sample buffer and resolved in 10% SDS-PAGE, and then transferred onto nitrocellulose membrane. […] Protein expression was analyzed using Image J (NIH) software.

[2] = IRL-1620 on postnatal day 21, brain at day 28, vs control

| Compound | Effects of IRL-1620 treatment (neurovascular remodeling) ([1]; pretreatment with BQ-788) | Protein expression of ETB receptors (immunoblotting) (postnatal rat brain; IRL-1620 5 μg/kg IV x3 on postnatal day 21, brain at day 28, vs control) | Overall VEGF expression (immunoblotting) (postnatal rat brain; [2]) | Overall expression of NGF (immunoblotting) (postnatal rat brain; [2]) | Number of proliferating cells in the infarcted brain ([1]; 1 week after MCAO) | VEGF-positive vessels/30 μm brain slice ([1]; 1 week following MCAO) | ETB receptor expression in cortex, striatum and SVZ ([1]; 24 hours post occlusion) | Neuronal numbers in cortex, striatum and SVZ ([1]; 24 hours post occlusion) | Number of blood vessels labeled with VEGF ([1]; 24 hours post occlusion, vs vehicle treatment) | NGF-positive cells per 100 μm^2 ([1]; SVZ, 1 week after MCAO) | NGF-positive cells per 100 μm^2 ([1]; cortex, 1 week after MCAO) | NGF-positive cells per 100 μm^2 ([1]; striatum, 1 week after MCAO) |
| --- | --- | --- | --- | --- | --- | --- | --- | --- | --- | --- | --- | --- |
| CCCC[C@@H](NC(=O)[C@@H](Cc1cn(C(=O)OC)c2ccccc12)NC(=O)[C@H](CC(C)(C)C)NC(=O)N1[C@H](C)CCC[C@@H]1C)C(=O)O [BQ788, reference compound] | blocked | – | – | – | – | – | – | – | – | – | – | – |
| Suc-Asp-Glu-Glu-Ala-Val-Tyr-Phe-Ala-His-Leu-Asp-Ile-Ile-Trp (Suc-DEEAVYFAHLDIIW) [IRL-1620] | – | increased | significantly enhanced | comparable | increased number | 11.33±2.13 | increased | preserved | enhanced | 3.05±0.38 per 100 μm^2 | 2.29±0.31 per 100 μm^2 | 2.08±0.26 per 100 μm^2 |
